These results are taken from patent US5252571A, “1,4-benzothiazine-2-acetic acid derivatives” (Sapporo Breweries Limited, priority 1990, dated 1993).

SMILES strings stand for the structures.

One series has as its target T1, aldose reductase (Sus scrofa, UniProt P80276).
T1 construct: porcine crystalline lens stored at -80° C. was homogenized in distilled water; from tissue; host or cells: porcine crystalline lens
The series is described as follows: Aldose reductase inhibitory activity (porcine crystalline lens enzyme). The series is classed as biochemical. The conditions noted are these: d1-glyceraldehyde 3 mM, pH 6.2, 25° C., 2 minutes. The procedure: Aldose reductase enzyme standard was prepared from porcine crystalline lens by the method of Hayman et al. (cf., S. Hayman et al., Journal of Biological Chemistry, 240, 877-882, 1965). That is, porcine crystalline lens stored at -80° C. was homogenized in distilled water followed by centrifugation at 10,000 XG for 15 minutes. The supernatant was dissolved to make 40% ammonium sulfate solution. The supernatant centrifuged at 10,000 XG for further 10 minutes was dialyzed to 0.05 M sodium chloride solution overnight. The thus obtained dialysate was used as the enzyme standard.
The activity of aldose reductase was determined by the method of Hayman et al. supra. That is, 25 μl of the enzyme solution described above and […] of a drug solution in 1% DMSO having various concentrations were added to 200 μl of 40 mM phosphate buffer (pH 6.2) prepared to contain […] lithium sulfate and 0.1 MM NADPH (reduced nicotinamide adenine dinucleotide phosphate) in final concentrations and Containing 3 mM d1-glyceraldehyde as substrate, respectively. Thereafter, the mixture was reacted at 25° C. for 2 minutes and change in absorbance at 340 nm was determined using COBAS FARA II (Roche Co.).

In series [1] the test system is tissue sorbitol in streptozotocin-induced diabetic rats. The series is described as follows: Inhibitory activity of accumulation of tissue sorbitol in streptozotocin-induced diabetic rats. The series is classed as in vivo, Sprague-Dawley rats. Conditions: 30 mg/kg oral 4, 8 and 24 hours after streptozotocin, control = 100%, Tukey's test *p < 0.05, **p < 0.01; for Accumulation of Tissue Sorbitol (%), Nerve: sciatic nerve. The procedure:
4) Inhibitory activity of accumulation of tissue sorbitol in streptozatocini-induced diabetic rats.
Sprague-Dawley rats (male,6 weeks of age, one group composed of 5 to 6 rats), fasted overnight, were made diabetic by single intravenous injection of 60 mg/kg body weight of streptozotocin (SIGMA Co. ) , which had been freshly dissolved in normal saline solution.
The compound was orally administered in the form of 0.5% carboxymethylcellulose suspension in a dose of 30 mg/kg 4, 8 and 24 hours after the injection of streptozotocin. During the test, rats were free access to feed and water. Three hours after the final administration, the sorbitol contens in tissues (red blood cell, sciatic nerve, lens) Were determined by the enzyme method of Bergmeyer et al. [cf., H. Y. Bergmeyer et al., Methods of Enzymatic Analysis, 3, 1323-1330, 1974], using SDH (sorbitol dehydrogenase) and AND (β-nicotinamide adenine dinucleotide). The results are shown by percentage (%) when the value obtained with control group administered with 0.5% carboxymethylcellulose solution as a solvent instead of the compound was made 100%.

Another series relates to ICR strain mice. Put plainly: Safety test, single oral administration in mice with 14 days observation. The series is classed as in vivo. The conditions noted are these: 300 mg/kg oral, male ICR mice. The procedure: Next, safety of the compounds of the present invention was verified by the following test.
After normal ICR strain mice (male, 7 weeks age, 5 mice being into one group) was fasted for 18 hours, each compound (300 mg/kg) of Examples 1311, 132, 134, 156, 173, 179, 183 and 188 was orally administered in the form of 0.5% carboxymethylcellulose suspension. In the control group, 0.5% carboxymethylcellulose solution alone was orally administered. […] During the observation, mice were free access to feed and water.

Consider `O=C(O)CC1Sc2cc(F)ccc2N(Cc2nc3cc(F)cc(F)c3s2)C1=O` (centres unmarked) [Example 182, 2-[4-(5,7-Difluorobenzothiazol-2-yl)methyl-7-fluoro-3,4-dihydro-3-oxo-2H-1,4-benzothiazin-2-yl]acetic acid], for which it took 0.012 µM to reach half-maximal inhibition against aldose reductase (IC50).

Take `O=C(O)CC1Sc2ccccc2N(Cc2nc3c(F)ccc(F)c3s2)C1=O` (centres unmarked) [Example 158, 2-[4-(4,7-Difluorobenzothiazol-2-yl)methyl-3,4-dihydro-3-oxo-2H-1,4-benzothiazin-2-yl]acetic acid]: in series [1], the “Accumulation of Tissue Sorbitol (%), Lens” value (shortened to “Accumulation … (%), Lens”) was 58.4%; the “Accumulation of Tissue Sorbitol (%), Red Blood Cell” value (“Accumulation … (%), Red Blood Cell” below) worked out at 39.2%; the “Accumulation of Tissue Sorbitol (%), Nerve” value (“Accumulation … (%), Nerve” below) worked out at 33.1%.

As to `Cc1ccc2c(c1)N(Cc1nc3cc(Cl)ccc3s1)C(=O)C(CC(=O)O)S2` (centres unmarked) [Example 139], the concentration for half-maximal inhibition (IC50) at aldose reductase amounted to 0.014 µM. That is a double-digit nanomolar value. On the same count and under the same terms, with `O=C(O)CC1Sc2ccccc2N(Cc2nc3ccc(Cl)c(Cl)c3s2)C1=O` (centres unmarked) [Example 160, 2-[4-(6,7-Dichlorobenzothiazol-2-.yl)methyl-3,4-dihydro-3-oxo-2H-1,4-benzothiazin-2-yl]acetic acid] the figure was 0.014 µM. On to `Cc1ccc2c(c1)N(Cc1nc3c(Cl)c(Cl)ccc3s1)C(=O)C(CC(=O)O)S2` (centres unmarked) [Example 156, 2-[4-(4,5-Dichlorobenzothiazol-2-yl)methyl-6-methyl-3,4-dihydro-3-oxo-2H-1,4-benzothiazin-2-yl]acetic acid], for which, in the series with ICR strain mice, the body weight entry is given as “progressed as in the control group” and the mice dead entry is “none”. `O=C(O)CC1Sc2ccccc2N(Cc2nc3c(Cl)c(Cl)cc(Cl)c3s2)C1=O` (centres unmarked) [Example 166, 2-[4-(4,5,7-Trichlorobenzothiazol-2-yl)methyl-3,4-dihydro-3-oxo-2H-1,4-benzothiazin-2-yl]acetic acid] gave an IC50 at aldose reductase of 0.0091 µM.

On to `Cc1ccc2c(c1)N(Cc1nc3cc(F)ccc3s1)C(=O)C(CC(=O)O)S2` (centres unmarked) [Example 132, 2-[4-(5-Fluorobenzothiazol-2-yl)methyl-6-methyl-3,4-dihydro-3-oxo-2H -1,4-benzothiazin-2-yl]acetic acid], for which, in the series on ICR strain mice, the body weight entry is given as “progressed as in the control group” and the mice dead result is given as “none”. Take `O=C(O)CC1Sc2ccccc2N(Cc2nc3c(Cl)c(Cl)ccc3s2)C1=O` (centres unmarked) [Example 154, 2-[4-(4,5-Dichlorobenzothiazol-2-yl)methyl-3,4-dihydro-3-oxo-2H-1,4-benzothiazin-2-yl]acetic acid]: in series [1], the “Accumulation … (%), Lens” value amounted to 59.0%; the “Accumulation … (%), Red Blood Cell” value was determined as 3.3%; the “Accumulation … (%), Nerve” value is on record as 18.6%. `CCOc1ccc2c(c1)SC(CC(=O)O)C(=O)N2Cc1nc2cc(F)ccc2s1` (centres unmarked) [Example 133, 2-[7-Ethoxy-4-(5-fluorobenzothiazol-2-yl)methyl-3,4-dihydro-3-oxo-2H-1,4-benzothiazin-2-yl]acetic acid]: the IC50 against aldose reductase stood at 0.015 µM. As for `O=C(O)CC1Sc2ccccc2N(Cc2nc3cc(F)cc(F)c3s2)C1=O` (centres unmarked) [Example 173, 2-[4-(5,7-Difluorobenzothiazol-2-yl)methyl-3,4-dihydro-3-oxo-2H-1,4-benzothiazin-2-yl]acetic acid], in the series with ICR strain mice, the body weight result is reported as “progressed as in the control group” and the mice dead result is reported as “none”. The IC50 against aldose reductase turned out to be 0.014 µM.

In the case of `Cc1ccc2c(c1)N(Cc1nc3cc(F)cc(F)c3s1)C(=O)C(CC(=O)O)S2` (centres unmarked) [Example 179, 2-[4-(5,7-Difluorobenzothiazol-2-yl)methyl-6-methyl-3,4-dihydro-3-oxo-2H-1,4-benzothiazin-2-yl]acetic acid], in the series on ICR strain mice, the body weight result is on record as “progressed as in the control group” and the mice dead result is listed as “none”. For the compound `O=C(O)CC1Sc2ccccc2N(Cc2nc3cc(F)ccc3s2)C1=O` (centres unmarked) [Example 131, 2-[4-(5-fluorobenzothiazol-2-yl]methyl-3,4-dihydro-3-oxo-2H-1,4-benzothiazin-2-yl]acetic acid], in the series on ICR strain mice, the body weight result is “progressed as in the control group” and the mice dead result is “none”. The compound further showed a concentration for half-maximal inhibition (IC50) on aldose reductase of 0.015 µM. With `Cc1cc(C)c2c(c1)N(Cc1nc3cc(F)ccc3s1)C(=O)C(CC(=O)O)S2` (centres unmarked) [Example 134, 2-[6,8-Dimethyl-4-(5-fluorobenzothiazol-2-yl)methyl-3,4-dihydro-3-oxo-2H-1,4-benzothiazin-2-yl]acetic acid], in the series with ICR strain mice, the body weight result is reported as “progressed as in the control group” and the mice dead result is “none”.

With `Cc1ccc2c(c1)SC(CC(=O)O)C(=O)N2Cc1nc2ccc(F)c(F)c2s1` (centres unmarked) [Example 199, 2-[4-(6,7-Difluorobenzothiazol-2-yl)methyl-7-methyl-3,4-dihydro-3-oxo-2H-1,4-benzothiazin-2-yl]acetic acid], the half-maximal inhibitory concentration (IC50) against aldose reductase worked out at 0.0077 µM. As for `Cc1ccc2c(c1)N(Cc1nc3c(F)cccc3s1)C(=O)C(CC(=O)O)S2` (centres unmarked) [Example 176, 2-[4-(4-Fluorobenzothiazol-2-yl)methyl-6-methyl-3,4-dihydro-3-oxo-2H-1,4-benzothiazin-2-yl]acetic acid], the IC50 at aldose reductase was 0.014 µM. This IC50 is about 1.8-fold higher than that of the compound before. Consider `O=C(O)CC1Sc2c(F)cccc2N(Cc2nc3c(F)c(F)cc(F)c3s2)C1=O` (centres unmarked) [Example 208, 2-[4-(4,5,7-Trifluorobenzothiazol-2-yl)methyl-8-fluoro-3,4-dihydro-3-oxo-2H-1,4-benzothiazin-2-yl]acetic acid], for which, in series [1], the “Accumulation … (%), Lens” value stood at 31.5%; the “Accumulation … (%), Red Blood Cell” value is on record as 22.9%; the “Accumulation … (%), Nerve” value stood at 0.0%. In turn, `O=C(O)CC1Sc2cc(OC(F)(F)F)ccc2N(Cc2nc3cc(F)cc(F)c3s2)C1=O` (centres unmarked) [Example 187, 2-[4-(5,7-Difluorobenzothiazol-2-yl)methyl-7-trifluoromethoxy-3,4-dihydro-3-oxo-2H-1,4-benzothiazin-2-yl]acetic acid] yielded an IC50 against aldose reductase of 0.0098 µM. `O=C(O)CC1Sc2cc(Cl)ccc2N(Cc2nc3c(F)c(F)cc(F)c3s2)C1=O` (centres unmarked) [Example 202, 2-[4-(4,5,7-Trifluorobenzothiazol-2-yl)methyl-7-chloro-3,4-dihydro-3-oxo-2H-1,4-benzothiazin-2-yl]acetic acid]: the half-inhibitory concentration (IC50) on aldose reductase is 0.0087 µM. In turn, `O=C(O)CC1Sc2cccc(F)c2N(Cc2nc3cc(F)ccc3s2)C1=O` (centres unmarked) [Example 177, 2-[5-Fluoro-4-(5-fluorobenzothiazol-2-yl)methyl-3,4-dihydro-3-oxo-2H-1,4-benzothiazin-2-yl]acetic acid] had a half-inhibitory concentration (IC50) against aldose reductase of 0.016 µM. The compound `O=C(O)CC1Sc2ccccc2N(Cc2nc3ccc(F)c(F)c3s2)C1=O` (centres unmarked) [Example 155, 2-[4-(6,7-Difluorobenzothiazol-2-yl)methyl-3,4-dihydro-3-oxo-2H-1,4-benzothiazin-2-yl]acetic acid] gave a 50% inhibitory concentration (IC50) on aldose reductase of 0.014 µM. For the same compound, in series [1], the “Accumulation … (%), Lens” value stood at 36.8%; the “Accumulation … (%), Red Blood Cell” value is 0.0%; the “Accumulation … (%), Nerve” value turned out to be 7.0%.

`COc1ccc2c(c1)N(Cc1nc3c(Cl)c(Cl)ccc3s1)C(=O)C(CC(=O)O)S2` (centres unmarked) [Example 206, 2-[4-(4,5-Dichlorobenzothiazol-2-yl)methyl-6-methoxy-3,4-dihydro-3-oxo-2H-1,4-benzothiazin-2-yl]acetic acid] displayed a half-inhibitory concentration (IC50) on aldose reductase of 0.0068 µM.

With `O=C(O)CC1Sc2ccc(F)cc2N(Cc2nc3c(F)c(F)ccc3s2)C1=O` (centres unmarked) [Example 209, 2-[4-(4,5-Difluorobenzothiazol-2-yl)methyl-6-fluoro-3,4-dihydro-3-oxo-2H-1,4-benzothiazin-2-yl]acetic acid], in series [1], the “Accumulation … (%), Lens” value is 25.2%; the “Accumulation … (%), Red Blood Cell” value is 24.7%; the “Accumulation … (%), Nerve” value was 3.1%.

As a reminder, the IC50 is the concentration needed to halve the response being measured.
